These results are taken from US20110028442A1, “DERIVATIVES OF 4-(2-AMINO-1-HYDROXYETHYL) PHENOL AS AGONISTS OF THE BETA2 ADRENERGIC RECEPTOR” (priority 2008, published 2011).

In test [1] the target is T1, human adrenergic β1 receptor (Homo sapiens, UniProt P08588).
T1 construct: purchased Perkin Elmer; host or cells: Sf9 cells
The test is described as follows: Human adrenergic β1 receptor binding assay (3H-CGP12177, Sf9 membranes). Conditions: membranes from Sf9 cells, 0.14 nM 3H-CGP12177, 60 minutes at room temperature. The method, then:
(§1) Human Adrenergic β1 and β2 Receptor Binding Assays
(§2) The study of binding to human adrenergic β1 and β2 receptors was performed using commercial membranes prepared from Sf9 cells where they are overexpressed (Perkin Elmer).
(§3) The membrane suspensions (16 μg/well for β1 and 5 μg/well for β2) in assay buffer, 75 mM Tris/HCl with 12.5 mM MgCl2 and 2 mM EDTA pH=7.4, were incubated with 0.14 nM 3H-CGP12177 (Amersham) and different concentrations of the test compounds, in a final volume of 250 μl, in GFC Multiscreen 96 well plates (Millipore) pretreated with +0.3% PEI. Non specific binding was measured in the presence of 1 μM propanolol. Incubation was for 60 minutes at room temperature and with gentle shaking. The binding reactions were terminated by filtration and washing with 2.5 volumes of Tris/HCl 50 mM pH=7.4. The affinity of each test compound to the receptor was determined by using at least six different concentrations ran in duplicate. IC50 values were obtained by non-linear regression using SAS.

Test [2] addresses T2, human adrenergic β2 receptor (Homo sapiens, UniProt P07550).
T2 construct: purchased Perkin Elmer; host or cells: Sf9 cells
Briefly: Human adrenergic β2 receptor binding assay (3H-CGP12177, Sf9 membranes). The conditions noted are these: for IC50: membranes from Sf9 cells, 0.14 nM 3H-CGP12177, 60 minutes at room temperature; for β1/β2 ratio: ratio of human β1 IC50 to human β2 IC50. The method, then: as §1, §2, §3

T2 sequence (P07550 whole entry): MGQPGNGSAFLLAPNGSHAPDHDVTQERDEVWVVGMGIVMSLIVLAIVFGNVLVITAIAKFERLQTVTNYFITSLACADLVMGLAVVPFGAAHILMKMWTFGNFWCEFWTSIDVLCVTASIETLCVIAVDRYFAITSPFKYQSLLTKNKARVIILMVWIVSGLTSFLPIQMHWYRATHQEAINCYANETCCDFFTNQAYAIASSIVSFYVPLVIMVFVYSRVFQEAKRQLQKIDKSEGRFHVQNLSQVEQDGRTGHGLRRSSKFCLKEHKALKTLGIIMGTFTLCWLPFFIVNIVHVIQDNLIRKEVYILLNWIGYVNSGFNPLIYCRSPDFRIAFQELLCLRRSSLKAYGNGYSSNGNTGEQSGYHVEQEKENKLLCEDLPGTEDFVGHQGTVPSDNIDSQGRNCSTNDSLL
T1 sequence (P08588 whole entry): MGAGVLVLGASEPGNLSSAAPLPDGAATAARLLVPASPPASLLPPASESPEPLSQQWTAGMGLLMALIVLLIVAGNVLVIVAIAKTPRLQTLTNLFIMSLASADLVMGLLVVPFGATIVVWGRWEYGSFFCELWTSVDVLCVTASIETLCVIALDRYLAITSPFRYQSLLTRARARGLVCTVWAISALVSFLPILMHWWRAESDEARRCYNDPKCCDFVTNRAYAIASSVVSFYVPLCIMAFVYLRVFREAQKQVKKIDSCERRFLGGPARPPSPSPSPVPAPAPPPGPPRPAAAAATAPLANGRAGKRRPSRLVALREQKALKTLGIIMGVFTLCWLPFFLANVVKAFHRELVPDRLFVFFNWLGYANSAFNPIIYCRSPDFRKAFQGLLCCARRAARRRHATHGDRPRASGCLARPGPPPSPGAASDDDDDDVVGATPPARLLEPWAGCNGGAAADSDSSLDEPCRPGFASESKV

As a reminder, the IC50 is the concentration at which inhibition is half-maximal. High values mean weaker potency in that assay, low ones greater potency in that assay. Molecule `CC(C)(C)c1ccc(CNC(=O)Nc2cccc(CCNC[C@H](O)c3ccc(O)c4[nH]c(=O)ccc34)c2)cc1` (racemic) [Example 33, N-(4-tert-butylbenzyl)-N′-[3-(2-{[(2R,S)-2-hydroxy-2-(8-hydroxy-2-oxo-1,2-dihydroquinolin-5-yl)ethyl]amino}ethyl)phenyl]urea] returned an IC50 in test [1] of 45.5 nM. In test [2], the IC50 was 7.6 nM and the β1/β2 ratio turned out to be 6.0.
On to `CC(Cc1cccc(NC(=O)NCc2ccccc2)c1)NCC(O)c1ccc(O)c2[nH]c(=O)ccc12` [Example 3, N-benzyl-N′-[3-((2R,S)-2-{[(2R,S)-2-hydroxy-2-(8-hydroxy-2-oxo-1,2-dihydroquinolin-5-yl)ethyl]amino}propyl)phenyl]urea], for which the values for the concentration for half-maximal inhibition (IC50) in test [1] and in test [2] were 98 nM and 12 nM, respectively. Also, the β1/β2 ratio in test [2] is recorded as 8.2.
Taken in the same sequence, the figures for `COc1ccccc1CNC(=O)Nc1cccc(CC(C)NCC(O)c2ccc(O)c3[nH]c(=O)ccc23)c1` [Example 6, N-[3-(2R,S)-2-{[(2R,S)-2-hydroxy-2-(8-hydroxy-2-oxo-1,2-dihydroquinolin-5-yl)ethyl]amino}propyl)phenyl]-N′-(2-methoxybenzyl)urea] were 54 nM, 4.6 nM and 11.7.
Taken in the same sequence, the figures for `O=C(NCc1ccccc1)Nc1cccc(CCNCC(O)c2ccc(O)c3[nH]c(=O)ccc23)c1` [Example 8, N-benzyl-N′-[3-(2-{[(2R,S)-2-hydroxy-2-(8-hydroxy-2-oxo-1,2-dihydroquinolin-5-yl)ethyl]amino}ethyl)phenyl]urea] were 49 nM, 4.4 nM and 11.0.
Consider `COc1ccccc1CNC(=O)Nc1cccc(CCNCC(O)c2ccc(O)c3[nH]c(=O)ccc23)c1` [Example 9, N-[3-(2-{[(2R,S)-2-hydroxy-2-(8-hydroxy-2-oxo-1,2-dihydroquinolin-5-yl)ethyl]amino}ethyl)phenyl]-N′-(2-methoxybenzyl)urea], for which, in test [1], the half-maximal inhibitory concentration (IC50) turned out to be 44.5 nM. Further, in test [2], the IC50 is 5.6 nM and the β1/β2 ratio is 7.9.
In test [1], `O=C(NCCc1ccccc1)Nc1cccc(CCNCC(O)c2ccc(O)c3[nH]c(=O)ccc23)c1` [Example 11, N-[3-(2-{[(2R,S)-2-hydroxy-2-(8-hydroxy-2-oxo-1,2-dihydroquinolin-5-yl)ethyl]amino}ethyl)phenyl]-N′-(2-phenylethyl)urea] came in with an IC50 of 9 nM. In test [2], the IC50 is 6.2 nM and the β1/β2 ratio was 1.4.
The matching figures for `O=C(NCCCc1ccccc1)Nc1cccc(CCNCC(O)c2ccc(O)c3[nH]c(=O)ccc23)c1` [Example 12, N-[3-(2-{[(2R,S)-2-hydroxy-2-(8-hydroxy-2-oxo-1,2-dihydroquinolin-5-yl)ethyl]amino}ethyl)phenyl]-N′-(3-phenylpropyl)urea]: 19.5 nM, 2.6 nM and 7.4.
`O=C(Nc1ccccc1)Nc1cccc(CCNCC(O)c2ccc(O)c3[nH]c(=O)ccc23)c1` [Example 15, N-[3-(2-{[(2R,S)-2-hydroxy-2-(8-hydroxy-2-oxo-1,2-dihydroquinolin-5-yl)ethyl]amino}ethyl)phenyl]-N′-phenylurea] came in with a half-maximal inhibitory concentration (IC50) in test [1] of 4.4 nM. Besides, in test [2], the IC50 was determined as 10.5 nM and the β1/β2 ratio turned out to be 0.4.
Taken in the same sequence, the figures for `O=C(Nc1cccc(CCNCC(O)c2ccc(O)c3[nH]c(=O)ccc23)c1)NC12CC3CC(CC(C3)C1)C2` [Example 16, N-1-adamantyl-N′-[3-(2-{[(2R,S)-2-hydroxy-2-(8-hydroxy-2-oxo-1,2-dihydroquinolin-5-yl)ethyl]amino}ethyl)phenyl]urea] were 38.5 nM, 10 nM and 3.8.
Turning to `O=C(NCc1c(Cl)cccc1Cl)Nc1cccc(CCNCC(O)c2ccc(O)c3[nH]c(=O)ccc23)c1` [Example 17, N-(2,6-dichlorobenzyl)-N′-[3-(2-{[(2R,S)-2-hydroxy-2-(8-hydroxy-2-oxo-1,2-dihydroquinolin-5-yl)ethyl]amino}ethyl)phenyl]urea], the IC50 in test [1] turned out to be 78 nM; in test [2], 6 nM. In addition, the β1/β2 ratio in test [2] is 13.
In turn, `O=C(NCCCCc1ccccc1)Nc1cccc(CCNCC(O)c2ccc(O)c3[nH]c(=O)ccc23)c1` [Example 20, N-[3-(2-{[(2R,S)-2-hydroxy-2-(8-hydroxy-2-oxo-1,2-dihydroquinolin-5-yl)ethyl]amino}ethyl)phenyl]-N′-(4-phenylbutyl)urea] gave an IC50 in test [1] of 13 nM. Also, in test [2], the IC50 is 2.9 nM and the β1/β2 ratio is recorded as 4.5.
In the case of `O=C(NCC12CC3CC(CC(C3)C1)C2)Nc1cccc(CCNCC(O)c2ccc(O)c3[nH]c(=O)ccc23)c1` [Example 23, N-(1-adamantylmethyl)-N′-[3-(2-{[(2R,S)-2-hydroxy-2-(8-hydroxy-2-oxo-1,2-dihydroquinolin-5-yl)ethyl]amino}ethyl)phenyl]urea], the IC50 in test [1] stood at 36 nM; in test [2], 5.9 nM.
In turn, `O=C(Nc1cccc(CCNC[C@H](O)c2ccc(O)c3[nH]c(=O)ccc23)c1)NC(c1ccccc1)c1ccccc1` [Example 26, N-(diphenylmethyl)-N′-[3-(2-{[(2R)-2-hydroxy-2-(8-hydroxy-2-oxo-1,2-dihydroquinolin-5-yl)ethyl]amino}ethyl)phenyl]urea] came in with an IC50 in test [1] of 24.5 nM. In addition, in test [2], the IC50 came out at 5.3 nM and the β1/β2 ratio is on record as 4.6.
Taken in the same sequence, the figures for `O=C(Nc1cccc(CCNC[C@H](O)c2ccc(O)c3[nH]c(=O)ccc23)c1)Nc1ccccc1-c1ccccc1` [Example 27, N-biphenyl-2-yl-N′-[3-(2-{[(2R)-2-hydroxy-2-(8-hydroxy-2-oxo-1,2-dihydroquinolin-5-yl)ethyl]amino}ethyl)phenyl]urea] were 24 nM, 9.7 nM and 2.5.
As for `C[C@@H](Cc1cccc(NC(=O)Nc2ccccc2-c2ccccc2)c1)NC[C@H](O)c1ccc(O)c2[nH]c(=O)ccc12` [Example 32, N-biphenyl-2-yl-N′-[3-(2-{[(2R)-2-hydroxy-2-(8-hydroxy-2-oxo-1,2-dihydroquinolin-5-yl)ethyl]amino}propyl)phenyl]urea, b isomer], the results for the IC50 in test [1] and in test [2] were 25.5 nM and 2.8 nM, respectively. Also, the β1/β2 ratio in test [2] stood at 9.1.
As for `O=C(Nc1ccc(CCNC[C@H](O)c2ccc(O)c3[nH]c(=O)ccc23)cc1)NC(c1ccccc1)c1ccccc1` [Example 36, N-(diphenylmethyl)-N′-[4-(2-{[(2R)-2-hydroxy-2-(8-hydroxy-2-oxo-1,2-dihydroquinolin-5-yl)ethyl]amino}ethyl)phenyl]urea], the IC50 stood at 19.5 nM in test [1] and 4.5 nM in test [2]. Also, the β1/β2 ratio in test [2] was determined as 4.3.
